Test results: patent US20260285850A1, “SUBSTITUTED OXAZOLIDINONES AND IMIDAZOLINONES AS HERBICIDES” (FMC CORPORATION, priority 2023, published 2026)

Tests used:
Format in all cases: in vivo
[1] = test system: barnyardgrass (Echinochloa crus-galli); assay: Test A preemergence soil spray, visual injury rating 0-100; details: 10 days, 0 = no effect, 100 = complete control
Summary of the method: (§1)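 Visual injury, scored 0-100 (100 = complete control) against untreated plants, 10 days after greenhouse treatment. Test chemicals in surfactant-containing non-phytotoxic solvent were applied in loam soil and sand, as a preemergence soil spray on seeds or postemergence to plants at the one- to two-leaf stage.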

[2] = test system: blackgrass (Alopecurus myosuroides); assay: as above; details: 10 days, 0 = no effect, 100 = complete control
Summary of the method: as §1

[3] = test system: corn (Zea mays); assay: as above; details: 10 days, 0 = no effect, 100 = complete control
Summary of the method: as §1

[4] = test system: green foxtail (Setaria viridis); assay: as above; details: 10 days, 0 = no effect, 100 = complete control
Summary of the method: as §1

[5] = test system: kochia (Bassia scoparia); assay: as above; details: 10 days, 0 = no effect, 100 = complete control
Summary of the method: as §1

[6] = test system: oat, wild (wild oat, Avena fatua); assay: as above; details: 10 days, 0 = no effect, 100 = complete control
Summary of the method: as §1

[7] = test system: palmer (palmer amaranth, palmer pigweed, Amaranthus palmeri); assay: as above; details: 10 days, 0 = no effect, 100 = complete control
Summary of the method: as §1

[8] = test system: ragweed (common ragweed, Ambrosia artemisiifolia); assay: as above; details: 10 days, 0 = no effect, 100 = complete control
Summary of the method: as §1

[9] = test system: ryegrass, Italian (italian ryegrass, Lolium multiflorum); assay: as above; details: 10 days, 0 = no effect, 100 = complete control
Summary of the method: as §1

[10] = test system: soybean (Glycine max); assay: as above; details: 10 days, 0 = no effect, 100 = complete control
Summary of the method: as §1

[11] = test system: wheat (Triticum aestivum); assay: as above; details: 10 days, 0 = no effect, 100 = complete control
Summary of the method: as §1

[12] = test system: barnyardgrass (Echinochloa crus-galli); assay: Test A postemergence application, visual injury rating 0-100; details: 10 days
Summary of the method: as §1

[13] = test system: blackgrass (Alopecurus myosuroides); assay: as above; details: 10 days
Summary of the method: as §1

[14] = test system: corn (Zea mays); assay: as above; details: 10 days
Summary of the method: as §1

[15] = test system: galium (catchweed bedstraw, Galium aparine); assay: as above; details: 10 days
Summary of the method: as §1

[16] = test system: green foxtail (Setaria viridis); assay: as above; details: 10 days
Summary of the method: as §1

[17] = test system: horseweed (Erigeron canadensis); assay: as above; details: 10 days
Summary of the method: as §1

[18] = test system: kochia (Bassia scoparia); assay: as above; details: 10 days
Summary of the method: as §1

[19] = test system: oat, wild (wild oat, Avena fatua); assay: as above; details: 10 days
Summary of the method: as §1

[20] = test system: palmer (palmer amaranth, palmer pigweed, Amaranthus palmeri); assay: as above; details: 10 days
Summary of the method: as §1

[21] = test system: ragweed (common ragweed, Ambrosia artemisiifolia); assay: as above; details: 10 days
Summary of the method: as §1

[22] = test system: ryegrass, Italian (italian ryegrass, Lolium multiflorum); assay: as above; details: 10 days
Summary of the method: as §1

[23] = test system: soybean (Glycine max); assay: as above; details: 10 days
Summary of the method: as §1

[24] = test system: wheat (Triticum aestivum); assay: as above; details: 10 days
Summary of the method: as §1

[25] = test system: barnyardgrass (Echinochloa crusgalli); assay: Test B flooded paddy test, visual plant response rating 0-100; details: 250 g ai/ha, Flood, applied to paddy water, evaluated after 13 days
Summary of the method: (§2)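 Visual scores versus untreated controls were recorded 13 days after treatment of greenhouse-held plants. At the 2-leaf stage, pots were flooded 3 cm above the soil surface and compounds added straight to the water.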

[26] = test system: ducksalad (Heteranthera limosa); assay: as above; details: 250 g ai/ha, Flood, applied to paddy water, evaluated after 13 days
Summary of the method: as §2

[27] = test system: rice (Oryza sativa); assay: as above; details: 250 g ai/ha, Flood, applied to paddy water, evaluated after 13 days
Summary of the method: as §2

[28] = test system: sedge, umbrella (small-flower umbrella sedge, Cyperus difformis); assay: as above; details: 250 g ai/ha, Flood, applied to paddy water, evaluated after 13 days
Summary of the method: as §2

[29] = 31 g ai/ha, postemergence, 0 = no effect, 100 = complete control
[30] = Postemergence, 125 g ai/ha, 0 is no effect, 100 is complete control

CSCCOC(=O)C1=CCC(NC(=O)C2(C)CN(c3cc(F)cc(F)c3)C(=O)O2)C1 (stereo not shown) [Compound 22]
Barnyardgrass plant response rating (0-100) ([1]; 31 g ai/ha): 0
Barnyardgrass plant response rating (0 to 100 scale) ([1]; 125 g ai/ha): 0
Blackgrass plant response rating (0-100) ([2]; 31 g ai/ha): 0
Blackgrass plant response rating (0 to 100 scale) ([2]; 125 g ai/ha): 20
Corn plant response rating (0-100) ([3]; 31 g ai/ha): 20
Corn plant response rating (0 to 100 scale) ([3]; 125 g ai/ha): 20
Foxtail, Green plant response rating (0-100) ([4]; 31 g ai/ha): 0
Foxtail, Green plant response rating (0 to 100 scale) ([4]; 125 g ai/ha): 30
Kochia plant response rating (0-100) ([5]; 31 g ai/ha): 0
Kochia plant response rating (0 to 100 scale) ([5]; 125 g ai/ha): 0
Oat, Wild plant response rating (0-100) ([6]; 31 g ai/ha): 0
Oat, Wild plant response rating (0 to 100 scale) ([6]; 125 g ai/ha): 20
Amaranth, Palmer plant response rating (0-100) ([7]; 31 g ai/ha): 0
Amaranth, Palmer plant response rating (0 to 100 scale) ([7]; 125 g ai/ha): 80
Ragweed plant response rating (0-100) ([8]; 31 g ai/ha): 0
Ragweed plant response rating (0 to 100 scale) ([8]; 125 g ai/ha): 0
Ryegrass, Italian plant response rating (0-100) ([9]; 31 g ai/ha): 0
Ryegrass, Italian plant response rating (0 to 100 scale) ([9]; 125 g ai/ha): 50
Soybean plant response rating (0-100) ([10]; 31 g ai/ha): 0
Soybean plant response rating (0 to 100 scale) ([10]; 125 g ai/ha): 10
Wheat plant response rating (0-100) ([11]; 31 g ai/ha): 20
Wheat plant response rating (0 to 100 scale) ([11]; 125 g ai/ha): 60
Barnyardgrass plant response rating (0-100) [12, 29]: 70
Barnyardgrass plant response rating (0 to 100 scale) [12, 30]: 90
Blackgrass plant response rating (0-100) [13, 29]: 60
Blackgrass plant response rating (0 to 100 scale) [13, 30]: 80
Corn plant response rating (0-100) [14, 29]: 50
Corn plant response rating (0 to 100 scale) [14, 30]: 100
Galium plant response rating (0-100) [15, 29]: 60
Galium plant response rating (0 to 100 scale) [15, 30]: 80
Foxtail, Green plant response rating (0-100) [16, 29]: 20
Foxtail, Green plant response rating (0 to 100 scale) [16, 30]: 80
Horseweed plant response rating (0-100) [17, 29]: 0
Horseweed plant response rating (0 to 100 scale) [17, 30]: 30
Kochia plant response rating (0-100) [18, 29]: 60
Kochia plant response rating (0 to 100 scale) [18, 30]: 90
Oat, Wild plant response rating (0-100) [19, 29]: 40
Oat, Wild plant response rating (0 to 100 scale) [19, 30]: 70
Amaranth, Palmer plant response rating (0-100) [20, 29]: 20
Amaranth, Palmer / Pigweed, Palmer plant response rating (0 to 100 scale) [20, 30]: 80
Ragweed plant response rating (0-100) [21, 29]: 0
Ragweed plant response rating (0 to 100 scale) [21, 30]: 50
Ryegrass, Italian plant response rating (0-100) [22, 29]: 60
Ryegrass, Italian plant response rating (0 to 100 scale) [22, 30]: 70
Soybean plant response rating (0-100) [23, 29]: 70
Soybean plant response rating (0 to 100 scale) [23, 30]: 90
Wheat plant response rating (0-100) [24, 29]: 90
Wheat plant response rating (0 to 100 scale) [24, 30]: 90
Plant response rating, Barnyardgrass (0 to 100 scale, 0 is no effect and 100 is complete control) [25]: 0
Plant response rating, Ducksalad (0 to 100 scale, 0 is no effect and 100 is complete control) [26]: 0
Plant response rating, Rice (0 to 100 scale, 0 is no effect and 100 is complete control) [27]: 0
Plant response rating, Sedge, Umbrella (0 to 100 scale, 0 is no effect and 100 is complete control) [28]: 0
